Reference: PMC5816626, “A multitarget approach to drug discovery inhibiting Mycobacterium tuberculosis PyrG and PanK” (Scientific Reports, 2018)
≈ marks a conversion by molar mass, not a printed value.

Assays:
Type in all cases: cell-based, Mycobacterium tuberculosis
[1] = tested on: M. tuberculosis 88.3, 88.4, 88.5, 88.9, 88.11, 88.12 mutants (coaA A620G (Q207R))
[2] = tested on: M. tuberculosis 88.1 mutant (coaA A620G (Q207R))
[3] = tested on: M. tuberculosis 81.10 mutant (ethA Δ1109–1137)
[4] = tested on: M. tuberculosis 88.2 mutant (coaA A620G (Q207R))
[5] = tested on: M. tuberculosis 82.21 mutant (ethA Δ1283–4, coaA A620G (Q207R))

| SMILES | MIC [1] | MIC [2] | MIC [3] | MIC [4] | MIC [5] |
| --- | --- | --- | --- | --- | --- |
| CCc1cc(C(N)=S)ccn1 [Ethionamide, reference compound] | 1 µg/mL (≈ 6.02 µM) | 1 µg/mL (≈ 6.02 µM) | 10 µg/mL (≈ 60.2 µM) | 1 µg/mL (≈ 6.02 µM) | 10 µg/mL (≈ 60.2 µM) |
| O=C(CCc1ccccc1)NC(=S)Nc1ccc(N2CCCCC2)cc1 [compound 7904688, 3-phenyl-N-[(4-piperidin-1-ylphenyl)carbamothioyl]propanamide] | 10 µg/mL (≈ 27.2 µM) | 10 µg/mL (≈ 27.2 µM) | >40 µg/mL | 10 µg/mL (≈ 27.2 µM) | >40 µg/mL |
| Cc1ccc(C(=O)Nc2ccc([N+](=O)[O-])cc2)s1 [compound 7947882, 5-methyl-N-(4-nitrophenyl)thiophene-2-carboxamide] | 2.5 µg/mL (≈ 9.53 µM) | 2.5 µg/mL (≈ 9.53 µM) | >40 µg/mL | 2.5 µg/mL (≈ 9.53 µM) | >40 µg/mL |
| CC1=CC=C(C(=O)Nc2ccc([N+](=O)[O-])cc2)S1(=O)=O [compound 11426026] | 2.5 µg/mL (≈ 8.5 µM) | 2.5 µg/mL (≈ 8.5 µM) | 1 µg/mL (≈ 3.4 µM) | 2.5 µg/mL (≈ 8.5 µM) | 2.5 µg/mL (≈ 8.5 µM) |
